Reference: publication PMC11784839, “Monoaminergic neurotransmitters are bimodal effectors of tau aggregation” (Science Advances, 2025)

Target: tau (Homo sapiens, UniProt P10636)
Test: MCE Phenols Library screening, tau biosensor cell seeding assay (AvZ)
Format: cell-based
Settings: for Z repl 1 / Z Repl 2: Z score; for Z repl 1 / raw data 1: replicate 1; for Z Repl 2 / raw data 2: replicate 2; for AvZ (average z score of seeding, SDs from the mean level of seeding): 10 μM phenol in cell cultures, AD brain homogenate preincubated 16 hours, two biological replicates, positive = catalyzes seeding, negative = inhibits
[1] = average Z score of two replicates, Phenols Library screen
[2] = average Z score of the two replicates, MCE Phenols Library screen
[3] = average puncta of the two replicates
[4] = average Z score of the two replicates, tau seeding
[5] = average Z score of the two replicates, tau biosensor seeding, MCE Phenols Library screen

tau, sequence (P10636 623-695 limits assumed): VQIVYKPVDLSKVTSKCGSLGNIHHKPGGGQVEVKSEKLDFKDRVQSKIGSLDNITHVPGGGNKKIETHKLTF

Z repl 1 | Z Repl 2 | av Z [1] | av puncta (average of raw data 1 and 2) | raw data 1 (puncta) | raw data 2 (puncta) | av Z [2] | av puncta [3] | av Z [4] | av Z [5] | raw data 1 (raw puncta) | raw data 2 (raw puncta) | AvZ (average z score of seeding, SDs from the mean level of seeding) | SMILES
0.062 | -0.242 | -0.09 | 18635 | 27088.2 | 10181.7 |  |  |  |  |  |  |  | COc1cc(-c2cc(=O)c3c(O)c(OC)c(O)cc3o2)cc(O)c1OC
-0.562 | -0.434 |  |  | 19599.6 | 8130.05 | -0.498 | 13864.9 |  |  |  |  |  | O=c1c(O[C@@H]2O[C@H](CO)[C@@H](O)[C@H](O)[C@H]2O)c(-c2ccc(O)c(O)c2)oc2cc(O[C@@H]3O[C@H](CO[C@@H]4O[C@H](CO)[C@@H](O)[C@H](O)[C@H]4O)[C@@H](O)[C@H](O)[C@H]3O)cc(O)c12
-0.599 | -0.958 |  | 10843.5 | 19152.5 | 2534.57 | -0.779 |  |  |  |  |  |  | O=C(O)CC(=O)OC[C@H]1O[C@@H](Oc2c(-c3ccc(O)c(O)c3)oc3cc(O)cc(O)c3c2=O)[C@H](O)[C@@H](O)[C@@H]1O
0.189 | 0.95 |  | 25767.5 | 28623.9 | 22911 |  |  | 0.57 |  |  |  |  | COc1cc([C@@H]2OC[C@@H]3[C@H]2CO[C@H]3c2cc(OC)c(O[C@@H]3O[C@H](CO)[C@@H](O)[C@H](O)[C@H]3O[C@@H]3OC[C@](O)(CO)[C@H]3O)c(OC)c2)cc(OC)c1O
 |  |  | 22344.8 | 29267.2 | 15422.3 |  |  |  |  |  |  |  | Cl.NCC(O)c1ccc(O)c(O)c1 (racemic) [DL-Norepinephrine (hydrochloride)]
0.043 | -0.387 | -0.172 | 17749.2 | 26861 | 8637.46 |  |  |  |  |  |  |  | COc1cc(/C=C/C(=O)O[C@H]2C[C@@](O)(C(=O)O)C[C@H](O)[C@@H]2O)ccc1O (stereo in doubt) [3-Feruloylquinic acid]
-0.457 | -0.234 |  |  |  |  | -0.346 | 15561.2 |  |  | 20858.2 | 10264.2 |  | O=C(O[C@H](Cc1ccc(O)c(O)c1)C(=O)O)C1=Cc2cc(O)c(O)cc2[C@H](c2ccc(O)c(O)c2)[C@H]1C(=O)OC(Cc1ccc(O)c(O)c1)C(=O)O (stereo in doubt) [Rabdosiin]
-0.904 | 0.064 |  |  |  |  | -0.42 | 14474.2 |  |  | 15493.9 | 13454.5 |  | CC=C1[C@H](O[C@@H]2O[C@H](CO)[C@@H](O)[C@H](O)[C@H]2O)OC=C(C(=O)OC)[C@H]1CC(=O)OC[C@H]1O[C@@H](OCCc2ccc(O)cc2)[C@H](O)[C@@H](O)[C@@H]1O (stereo in doubt) [Specneuzhenide]
-1.751 | -1.021 |  | 3594.24 | 5324.12 | 1864.38 | -1.386 |  |  |  |  |  |  | O=C(OC[C@H]1OC(OC(=O)c2cc(O)c(O)c(O)c2)[C@H](OC(=O)c2cc(O)c(O)c(O)c2)[C@@H](OC(=O)c2cc(O)c(O)c(O)c2)[C@@H]1O)c1cc(O)c(O)c(O)c1 (stereo partly drawn) [1,2,3,6-Tetragalloylglucose]
-1.617 | -1.152 |  | 3698 | 6931.48 | 464.513 |  |  |  |  |  |  | -1.385 | Oc1ccc(O)c(O)c1 [1,2,4-Trihydroxybenzene]
-1.077 | -0.588 |  | 9954.06 | 13417.7 | 6490.43 | -0.832 |  |  |  |  |  |  | O=C(C=Cc1ccc(O)c(O)c1)OC1CC(OC(=O)C=Cc2ccc(O)c(O)c2)(C(=O)O)CC(O)C1O (stereo not drawn) [1,3-Dicaffeoylquinic acid]
1.606 | 0.927 |  | 34150.6 | 45632.1 | 22669.1 |  |  |  | 1.267 |  |  |  | Oc1cccc2ccccc12 [1-Naphthol]
-0.93 | -0.817 |  | 9615.07 | 15187.3 | 4042.85 | -0.873 |  |  |  |  |  |  | O=C(O[C@H]1[C@H](Oc2c(-c3ccc(O)c(O)c3)oc3cc(O)cc(O)c3c2=O)O[C@H](CO)[C@H](O)[C@@H]1O)c1cc(O)c(O)c(O)c1 [2""-O-Galloylhyperin]
0.483 | -0.487 |  | 19854.9 | 32144.5 | 7565.33 |  |  |  |  |  |  | -0.002 | CC(=O)c1ccc(C)cc1O [2'-Hydroxy-4'-methylacetophenone]
-0.335 | -0.39 |  |  |  |  |  | 15461.1 |  |  | 22324.8 | 8597.33 | -0.363 | O=C(O)c1ccc(O)c(O)c1O [2,3,4-Trihydroxybenzoic acid]
0.385 | -0.124 |  | 21205.2 | 30969.9 | 11440.6 |  |  |  |  |  |  | 0.13 | COc1ccc(C(C)=O)c(O)c1O [2,3-Dihydroxy-4-methoxyacetophenone]
-0.264 | -0.663 |  |  | 23175.8 | 5682.84 |  | 14429.3 |  |  |  |  | -0.464 | CC(=O)c1cc(O)ccc1O [2,5-Dihydroxyacetophenone]
0.475 | 0.955 |  | 27508.9 | 32047.3 | 22970.5 |  |  |  |  |  |  | 0.715 | O=C(O)c1c(O)cccc1O [2,6-Dihydroxybenzoic acid]
0.44 | -0.434 |  | 19881.8 | 31637.3 | 8126.32 |  |  |  |  |  |  | 0.003 | Cc1cc(O)cc(C)c1O [2,6-Dimethylhydroquinone]
0.346 | -0.011 |  | 21574.5 | 30502.1 | 12646.9 |  |  |  |  |  |  | 0.167 | CCc1cccc(C)c1O [2-Ethyl-6-methylphenol]
-1.341 | -0.32 |  | 9796.98 | 10246.8 | 9347.15 |  |  |  |  |  |  | -0.831 | O=C(O)Cc1ccccc1O [2-Hydroxyphenylacetic acid]
1.646 | 0.7 |  | 33178.1 | 46109.4 | 20246.7 |  |  |  | 1.173 |  |  |  | COc1cc2c(cc1O)CC[C@@H]1[C@@H]2CC[C@]2(C)[C@@H](O)CC[C@@H]12 [2-Methoxyestradiol]
1.167 | 0.175 |  | 27499.2 | 40362.2 | 14636.1 |  |  |  |  |  |  | 0.671 | OCCc1ccccc1 [2-Phenylethanol]
-0.338 | -0.997 |  |  | 22292.7 | 2117.17 |  | 12205 |  |  |  |  | -0.667 | CC(=O)c1ccc(O)c(O)c1 [3',4'-Dihydroxyacetophenone]
-0.14 | 0.484 |  | 21302.3 | 24671.3 | 17933.3 |  |  | 0.172 |  |  |  |  | COc1cc(/C=C/c2ccc(O)c(O)c2)cc(OC)c1 [3'-Hydroxypterostilbene]
-0.715 | -0.346 |  |  | 17766.4 | 9073.25 | -0.53 | 13419.8 |  |  |  |  |  | O=c1c(-c2ccc(O)c(O)c2)coc2c([C@@H]3O[C@H](CO)[C@@H](O)[C@H](O)[C@H]3O)c(O)ccc12 [3'-Hydroxypuerarin]

SMILES | Z repl 1 | Z Repl 2 | av Z [1] | av puncta (average of raw data 1 and 2) | raw data 1 (puncta) | raw data 2 (puncta) | av Z [2] | av puncta [3] | av Z [4] | av Z [5] | raw data 1 (raw puncta) | raw data 2 (raw puncta) | AvZ (average z score of seeding, SDs from the mean level of seeding)
OC[C@H]1O[C@@H](Oc2cc(O)cc(/C=C/c3ccc(O)cc3)c2)[C@H](O)[C@@H](O)[C@@H]1O (mixture of isomers) [(E/Z)-Polydatin] | 0.505 | -0.119 |  | 21956.3 | 32412.5 | 11500.1 |  |  | 0.193 |  |  |  | 
CCC1(O)C(=O)OCc2c1cc1n(c2=O)Cc2cc3cc(O)ccc3nc2-1 (racemic) [(±)-10-Hydroxycamptothecin] | 2.809 | 1.992 |  | 47054 | 60066.9 | 34041 |  |  |  | 2.4 |  |  | 
Cc1c(C)c2c(c(C)c1O)CCC(C)(CCCC(C)CCCC(C)CCCC(C)C)O2 (racemic) [DL-alpha-Tocopherol] | -0.849 | -0.142 |  |  | 16151.3 | 11251.7 | -0.496 | 13701.5 |  |  |  |  | 
O=C(O)c1ccc(O)cc1O [2,4-Dihydroxybenzoic acid] | 0.635 | -0.383 |  | 21320.5 | 33969.7 | 8671.41 |  |  |  |  |  |  | 0.126
Oc1c(Br)cccc1Br [2,6-Dibromophenol] | -0.611 | 0.25 |  | 17229.5 | 19019.6 | 15439.4 |  |  |  |  |  |  | -0.18
